Reference: patent publication US5840697A, “Peptide inhibitors of calmodulin” (Torrey Pines Institute for Molecular Studies, priority 1996, dated 1998)
Square brackets hold non-standard residues; d marks the D form. Peptide text beside a SMILES is read from it.

Tests used:
[1] = tested on: NRK cells; experiment: long term stability: number of NRK cells at 48 hr after activation; type: cell-based, rat; conditions: added at 5 hr, counted 48 hr after activation
Source text: The similar activity found for the (L)-amino acid peptides and (D)-amino acid peptides indicate that the inhibition of calmodulin occurs rapidly following the addition of the inhibitory peptides. The peptides' long term stability was then studied by adding Ac-(D)Leu-(D)Trp-(D)Arg-(D)Ile-(D)Leu-(D)Trp-NH2, Ac-Leu-Trp-Arg-Ile-Leu-Trp-NH2 (SEQ ID No. 48), W13 and W12 at 5 hr following the reentry of the NRK cells into the cell cycle and measuring the number of cells at 48 hr after activation.

[2] = molecular target: phosphodiesterase; experiment: calcium-dependent phosphodiesterase assay in the absence of calmodulin; type: biochemical; conditions: Table III
Method: To sample assay tubes were added the following components: assay buffer, 25 ul; CaCl2, 5 ul; 5'-nucleotidase, 7.5 ul (stock solution is 10 units/ml); calmodulin 5 units; calmodulin inhibitor peptides to obtain the desired final concentration of 50 μM. The volume was then made up to 200 ul with water. Control blanks were prepared replacing the peptides with water. The added components were thoroughly mixed and the tubes incubated at 30° C. for 10 min. Then, 25 ul of cAMP at 10.8 mM was added and incubated for 90 min at 30° C. The reaction was stopped by the addition of 50 ul of 55% trichloroacetic acid (TCA). The samples were centrifuged to remove the protein precipitate and the 50 ul of the supernatant was withdrawn for phosphate measurement. To the supernatant aliquot, 50 ul ammonium molybdate (0.55% in 1.1 N sulfuric acid) was added, followed by the addition of 5 ul of reducing agent (24 g sodium bisulfite, 2.4 g sodium sulfite, 0.5 g of 1-amino-2-naphthol-4-sulfonic acid in 200 ml of water), and the contents were mixed by vortexing. The absorbance of the solution were read at 660 nm using water as a blank, identified as control "Calmo."
As described above, one of the undesirable biological effects of existing calmodulin inhibitors is their non-specific binding to other proteins and the like. Therefore, the specificity of the instant inhibitory peptides for calmodulin was examined. The specificity was determined using the calcium-dependent phosphodiesterase assay described in Example I. The assay was carried out for the determination of IC50 values in the presence of calmodulin (IC50 value for calmodulin) and in the absence of calmodulin (IC50 for phosphodiesterase), the latter of which provides the effect of the inhibitory peptides on the phosphodiesterase.

[3] = molecular target: calmodulin (Homo sapiens, UniProt P0DP23); experiment: electrophoretic band shift assay of peptide-calmodulin complexes; type: binding
Method: The following samples were subjected to electrophoresis in the gel lane indicated:
Because melittin is known to bind to calmodulin as described, for example, in Comte et al., Biochem. J., 209:269-272 (1983), in the above samples melittin is the positive control. The samples were incubated with calmodulin at 22° C. for 1 hr, and electrophoresed on a 10% acrylamide gel in Tris-glycine buffer under nondenaturating conditions as described in Head and Perry, Biochem. J., 137:145-154 (1974), which is incorporated herein by reference. The gel was then stained with coomasie blue.
The band shifts were also measured using a densitometer. Determination of band width by densitometry was done on the following samples: (1) calmodulin (1 nmol)+EDTA (2 nmol); (2) calmodulin (1 nmol)+Ca^2+ (1 nmol)+Ac-(D)Leu-(D)Trp-(D)Arg-(D)Ile-(D)Leu-(D)Trp-NH2 (100 nmol); and (3) calmodulin (1 nmol)+Ca^2+ (1 nmol).

IC50 [2]: 118 µM
band shift (mobility change) on binding to calmodulin ([3]; in the presence of Ca2+): shifted relative to lane 8
band shift (mobility change) on binding to calmodulin ([3]; with EDTA (no calcium)): no band shift
Compound: CC[C@@H](C)[C@@H](NC(=O)[C@@H](CCCNC(=N)N)NC(=O)[C@@H](Cc1c[nH]c2ccccc12)NC(=O)[C@@H](CC(C)C)NC(C)=O)C(=O)N[C@H](CC(C)C)C(=O)N[C@H](Cc1c[nH]c2ccccc12)C(N)=O [Ac-(D)Leu-(D)Trp-(D)Arg-(D)Ile-(D)Leu-(D)Trp-NH2] (Ac-[dL][dW][dR][dI][dL][dW]-NH2)
number of cells relative to control cells [1]: significantly lower number of cells
